Test results as given in paper PMC12349723, “Computationally accelerated identification of P-glycoprotein inhibitors” (PLOS One, 2025).
Several values for one entry are separate records, joined by “and”; a condition that tells them apart may be missing. Equal entries are not always repeated. Where two headings read alike, the source gives them in different places.

Legend:
P-gp = target: T1, P-gp (Homo sapiens, UniProt P08183); assay: LC-MS/MS intracellular accumulation assay with or without tariquidar (P-gp transport substrate test) in DU145-TXR cells; format: in vitro ADME; conditions: for P-gp transport substrate assessment: 5 µM compound with or without 500 nM tariquidar, LC-MS/MS
T1 construct: The MDR, P-gp overexpressing DU145-TXR cells were maintained under positive selection pressure; endogenous in cells; host or cells: DU145-TXR (paclitaxel-resistant sub-line of DU145 human prostate cancer cells)
T1 sequence (P08183 whole entry): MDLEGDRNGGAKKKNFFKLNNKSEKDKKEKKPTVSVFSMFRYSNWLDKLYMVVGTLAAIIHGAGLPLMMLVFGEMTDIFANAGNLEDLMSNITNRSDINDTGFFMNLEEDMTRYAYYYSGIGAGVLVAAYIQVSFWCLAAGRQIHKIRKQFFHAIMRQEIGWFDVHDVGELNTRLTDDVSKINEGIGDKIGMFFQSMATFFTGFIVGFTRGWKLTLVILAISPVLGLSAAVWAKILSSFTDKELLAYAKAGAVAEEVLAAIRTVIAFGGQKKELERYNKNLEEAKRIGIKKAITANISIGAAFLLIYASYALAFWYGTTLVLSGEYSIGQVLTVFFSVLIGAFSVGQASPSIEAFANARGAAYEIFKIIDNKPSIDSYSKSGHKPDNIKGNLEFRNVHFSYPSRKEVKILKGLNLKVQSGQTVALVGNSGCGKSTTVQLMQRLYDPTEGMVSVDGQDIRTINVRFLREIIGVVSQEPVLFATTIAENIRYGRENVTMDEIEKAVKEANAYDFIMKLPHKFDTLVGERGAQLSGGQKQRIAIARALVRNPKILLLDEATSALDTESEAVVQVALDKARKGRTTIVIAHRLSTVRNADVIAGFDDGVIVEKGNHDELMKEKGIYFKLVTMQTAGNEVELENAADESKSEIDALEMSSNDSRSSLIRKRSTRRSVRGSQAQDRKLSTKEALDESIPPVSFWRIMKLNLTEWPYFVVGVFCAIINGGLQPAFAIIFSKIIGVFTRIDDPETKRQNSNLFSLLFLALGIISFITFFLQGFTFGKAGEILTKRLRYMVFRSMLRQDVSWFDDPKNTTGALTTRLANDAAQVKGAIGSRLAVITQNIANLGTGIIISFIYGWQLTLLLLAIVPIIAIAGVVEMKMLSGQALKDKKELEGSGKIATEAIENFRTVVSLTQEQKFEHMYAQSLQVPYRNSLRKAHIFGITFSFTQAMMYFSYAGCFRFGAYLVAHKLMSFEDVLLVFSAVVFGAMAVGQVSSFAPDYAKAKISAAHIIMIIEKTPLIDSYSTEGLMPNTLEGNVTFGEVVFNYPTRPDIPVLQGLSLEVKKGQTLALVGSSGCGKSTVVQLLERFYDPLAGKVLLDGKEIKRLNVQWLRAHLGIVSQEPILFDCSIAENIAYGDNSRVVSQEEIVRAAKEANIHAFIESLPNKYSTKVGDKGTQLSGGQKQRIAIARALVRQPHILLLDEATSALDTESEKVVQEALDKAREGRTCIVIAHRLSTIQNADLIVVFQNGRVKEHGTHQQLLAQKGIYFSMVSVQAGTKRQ
Protocol: DU145-TXR cells were seeded at 350,000 cells per well in 6-well plates in complete RPMI medium. […] A full sample of DAU was also prepared for quantitative analysis. […] Media was removed with a glass vacuum aspirator. Cells were re-suspended and washed in 2mL of ice-cold Hank’s Balanced Salt Solution (HBSS, Gibco), and spun again at 2400 rpm. Cell lysates were diluted in 600 µL of ice-cold HBSS, flash-frozen in liquid nitrogen, and stored at −80 °C until analysis. LC-MS/MS intracellular accumulation assays were performed in collaboration with the Pharmacology Core at the University of Texas Southwestern Medical Center (UTSW). […] This method allowed us to quantify the change – if any – in the relative amount of compound present in the samples when TQR was added. An increase in the relative amount of compound indicates enhanced intracellular retention that compound. […] The “Internal Standard” (IS) is a known substance added in a constant amount to each sample. The “Peak Area”, expressed as “counts”, describes the number of MS/MS spectra from the experimental compound and serves as a measure of its relative abundance. […] These values allow a comparison of the relative abundance of compound between the “- TQR” and “+ TQR” samples, and to test for statistically significant differences. LC-MS/MS quantification was performed as follows. Cell lysate was aliquoted into Eppendorf tubes. In contrast to [9], blank cell lysates were not spiked with varying concentrations of each compound to create a standard curve, since compound amounts were normalized to abundance of the internal standard. […] The supernatant was then transferred to an HPCL vial, and subsequently analyzed using LC-MS/MS using a Sciex 4000QTRAP mass spectrometer coupled to a Shimadzu Prominence LC. […] The column flow rate was 1.5 ml/min using an Agilent C18 XDB, 5 micron packing 50 × 4.6 mm column. […] A BSA standard curve was then prepared in water and mixed using the same ratio. […] The ratio of Analyte to Internal Standard was normalized to the lysate content for each individual sample. […] Statistical significance was determined using a Student’s T Test in GraphPad Prism. We aimed to identify P-gp inhibitors that are not transport substrates of the pump itself. […] To test these predictions in vitro, liquid chromatography with tandem mass spectrometry (LC-MS/MS) was used to assess the intracellular accumulation of experimental compounds as described in [9]. […] The relative intracellular accumulation of each experimental compound was then assessed using LC-MS/MS. […] The P-gp substrate and chemotherapeutic daunorubicin (DAU) was used as a positive control for P-gp-mediated transport.

DU145 cells = assay: MTT viability assay, non-P-gp overexpressing DU145 parental line, with or without PTX; format: cell-based, human; conditions: for Sensitization of DU145 cells to PTX: 15 µM compound + PTX vs PTX alone; for viability at 15 µM: Homo sapiens, DU-145, 48 h
Protocol: The chemotherapeutic sensitive DU145 human prostate cancer cells and the multidrug resistant sub-line, DU145-TXR, were generous gifts from Dr. Evan Keller (University of Michigan, Ann Arbor, MI). The MDR, P-gp overexpressing DU145-TXR cells were maintained under positive selection pressure by supplementing complete medium with 10 nM paclitaxel (Acros Organics, NJ). […] The MDR, P-gp overexpressing A2780-ADR cell line was maintained under positive selection pressure by supplementing complete medium with 100 nM doxorubicin (Fisher Scientific, NJ). The non-cancerous HFL1 (human lung fibroblast) cell line cell line was a generous gift from Dr. Robert Harrod (Southern Methodist University, Dallas, TX) and was maintained in complete F12K media consisting of F12K with 10% fetal bovine serum, 100 U/mL penicillin, and 100 µg/mL streptomycin (Gibco). Flasks and 96 well plates that were used with the non-cancerous line HFL1 were pre-treated with 0.1 mg/ml Collagen Type 1 (Gibco) and rinsed with PBS (Fisher).
Culture of the DU145, DU145-TXR, and HFL1 cell lines was performed as described in [8]. Culture of the A2780 and A2780-ADR cell lines was performed as described in [9]. MTT assays were performed as described in [8] with minor modifications. […] Data represent the mean of two separate experiments, with n = 3 samples per experiment (n = 6 total) (S4 Table).
MTT assays measure the reduction of yellow, water soluble 3-(4,5-dimethylthiazol-2-yl)-2,5-diphenyltetrazolium bromide (MTT) to blue, insoluble formazan crystals by cellular reductase processes in living cells. Cells were trypsinized from monolayers and seeded in complete medium in 96 well plates. Cancerous cell lines (DU145, DU145-TXR, A2780, A2780-ADR) were seeded at 3,000 cells per well in complete RPMI medium. The non-cancerous HFL1 line was seeded at 4,000 cells per well in complete F12K medium, in collagen-treated plates (Collagen Type 1, Gibco). Cells were incubated with experimental compounds for 48 hours at 37 °C and 5% CO2 in a humidified incubator. At 48 hours, MTT was added (20 µL/well of 5 mg/mL MTT in PBS) to each well. After incubation for 4 hours, the media was removed, and the formazan crystals were dissolved in 100 µL DMSO per well. Plates containing the semi-adherent A2780 or A2780-ADR lines were spun at 1400 rpm for 3 minutes prior to aspiration of media, and the addition of DMSO. Plates were shaken for 10 minutes at 500 rpm on an Orbital shaker (LabDoctor from MidSci, St Louis, MO). The absorbance was measured at 570 nm using a Bio-Tek Cytation 5 (Bio-Tek, Winooski, VT). The measured absorbance value was correlated with the number of metabolically active cells in that well, corrected for absorbance of media. The percent of cell viability (termed ‘survival’ here) was calculated as a percentage of survival of the control condition, which refers to vehicle-treated (DMSO as vehicle) cells, or vehicle-and-chemotherapeutic-treated cells, if testing a compound’s ability to re-sensitize cells to a chemotherapeutic. Percent survival was calculated using the following equation:
% Survival=100 × absorbance of experimental cells/mean absorbance of control treated cells
For DU145-TXR, DU145, HFL1 and A2780 cells – data are the mean ± one standard deviation, 8 samples per compound, from at least two independent trials per compound. […] For A2780-ADR cells, data are the mean ± one standard deviation with 12 samples per compound, from at least two independent trials per compound.
67 compounds were chosen from computational screens for testing in vitro. A) DU145-TXR cells were exposed to 15 µM experimental compound with or without 500 nM of the P-gp substrate and chemotherapeutic paclitaxel (PTX).

[1] = DU145-TXR, 5 µM compound, 2.5 h, with 500 nM tariquidar, mean ± SD, triplicate
[2] = DU145-TXR, 5 µM compound, 2.5 h, without tariquidar, mean ± SD, triplicate
[3] = DU145 cells, 48 h, mean of 8 samples
[4] = DU145 cells, 48 h, single samples, 2 trials x 4 samples
[5] = DU145 cells, 48 h, mean of 8 samples, read-out: % Survival, Mean, 15 µM Compound alone
[6] = significant difference = likely P-gp transport substrate

Compound | Intracellular accumulation (normalized ratio of compound to internal standard), Trial 1, + TQR (P-gp; [1]) | Intracellular accumulation (normalized ratio of compound to internal standard), Trial 2, + TQR (P-gp; [1]) | Intracellular accumulation (normalized ratio of compound to internal standard), Trial 3, + TQR (P-gp; [1]) | Intracellular accumulation (normalized ratio of compound to internal standard), Trial 1, - TQR (P-gp; [2]) | Intracellular accumulation (normalized ratio of compound to internal standard), Trial 2, - TQR (P-gp; [2]) | Intracellular accumulation (normalized ratio of compound to internal standard), Trial 3, - TQR (P-gp; [2]) | P (- TQR vs + TQR), Trial 1 (P-gp; Student's T test of the mean) | P (- TQR vs + TQR), Trial 2 (P-gp; Student's T test of the mean) | P (- TQR vs + TQR), Trial 3 (P-gp; Student's T test of the mean) | Sensitization of DU145 cells to PTX (DU145 cells) | % Survival, Mean, 15 µM compound + 500 nM PTX (DU145 cells; [3]) [%] | % Survival, 15 µM Compound alone (individual samples) (DU145 cells; [4]) | % Survival, 15 µM compound + 500 nM PTX (individual samples) (DU145 cells; [4]) | viability at 15 µM (DU145 cells; [5]) [%] | P-gp transport substrate assessment (P-gp; DU145-TXR, 2.5 h) | viability at 15 µM (DU145 cells; DU145 cells, 48 h, single samples, 2 trials x 4 samples, read-out: % Survival, 15 µM Compound alone (individual samples)) [%] | Significance of accumulation with tariquidar, Trial 1 (P-gp; [6]) | Significance of accumulation with tariquidar, Trial 2 (P-gp; [6]) | % Survival, Mean, 15 µM Compound alone (DU145 cells; [3]) [%]
O=C(c1cc2ccccc2[nH]1)N1CCN(S(=O)(=O)c2cccc3nonc23)CC1 [Compound 66, O=C(N1CCN(CC1)S(=O)(=O)c1cccc2nonc12)c1cc2ccccc2[nH]1] | 0.833 ± 0.124 | 0.036 ± 0.005 | 0.140 ± 0.029 | 0.747 ± 0.096 | 0.040 ± 0.001 | 0.170 ± 0.039 | 0.4 | 0.2 | 0.3 | – | – | – | – | – | – | – | – | – | –
Nc1nonc1-n1nnc(C(=O)N/N=C/c2c3ccccc3cc3ccccc23)c1COc1ccc(F)cc1 [Compound 60, Nc1nonc1-n1nnc(C(=O)N\N=C\c2c3ccccc3cc3ccccc23)c1COc1ccc(F)cc1] | 0.282 ± 0.010 | 0.250 ± 0.003 | – | 0.231 ± 0.165 | 0.250 ± 0.003 | – | 0.6 | > 1 | – | – | – | – | – | – | – | – | – | – | –
Cc1onc(-c2ccccc2)c1-c1nnc(Cn2cnc3c(oc4ccccc43)c2=O)o1 [Compound 78, Cc1onc(c1-c1nnc(Cn2cnc3c4ccccc4oc3c2=O)o1)-c1ccccc1] | 0.001 ± 0.000 | 0.001 ± 0.000 | – | 0.001 ± 0.000 | 0.001 ± 0.000 | – | – | – | – | insignificantly sensitize DU145 cells to PTX | 33.6 | 94% | 31% | 89.2 | unlikely to be transport substrates of P-gp | – | – | – | –
COc1cccc(N2CCN(c3ccc4nnc(CCC(=O)Nc5ccc(F)c(F)c5)n4n3)CC2)c1 [Compound 101, COc1cccc(c1)N1CCN(CC1)c1ccc2nnc(CCC(=O)Nc3ccc(F)c(F)c3)n2n1] | 12.03 ± 2.45 | 22.88 ± 2.92 | – | 11.86 ± 1.16 | 21.17 ± 3.59 | – | 0.9 | 0.6 | – | insignificantly sensitize DU145 cells to PTX | 24.0 | 89% | – | 89.9 | unlikely to be transport substrates of P-gp | 92 | N.S. (P > 0.05 = not significant (N.S.)) | N.S. (P > 0.05 = not significant (N.S.)) | –
COc1ccc(OC)c(NC(=O)c2nnn(-c3ccc4noc(-c5ccccc5)c4c3)c2C)c1 [Compound 71, COc1ccc(OC)c(NC(=O)c2nnn(c2C)-c2ccc3noc(-c4ccccc4)c3c2)c1] | 0.067 ± 0.005 | 0.091 ± 0.043 | – | 0.085 ± 0.013 | 0.071 ± 0.009 | – | 0.09 | 0.5 | – | – | – | – | – | – | – | – | – | – | –
COc1ccc2c3c([nH]c2c1)[C@H](CC(C)C)N1C(=O)[C@H](CCC(=O)OC(C)(C)C)NC(=O)[C@@H]1C3 [Ko143, reference compound] | – | – | – | – | – | – | – | – | – | – | 20.1 | 89% and 88% and 53% and 50% and 46% and 42% and 86% and 91% | 12% and 13% and 16% and 22% and 23% and 24% and 25% | – | – | – | – | – | 68.1
COc1cc2c(cc1OC)CN(CCc1ccc(NC(=O)c3cc(OC)c(OC)cc3NC(=O)c3cnc4ccccc4c3)cc1)CC2 [Tariquidar, reference compound] | – | – | – | – | – | – | – | – | – | – | 12.0 | – | – | 86.1 | – | – | – | – | –
